{"source": "patent US9365540B2", "about": "“Benzimidazole derivatives as MCH receptor antagonists” (Takeda Pharmaceutical Company Limited, priority 2012, dated 2016)", "key": {"human MCHR1": {"target": "T1, human MCHR1 (Homo sapiens, UniProt Q99705)", "T1 construct": "expressed in transfected cells; host or cells: CHO dhfr- cells, clone #4", "T1 sequence (Q99705 whole entry)": "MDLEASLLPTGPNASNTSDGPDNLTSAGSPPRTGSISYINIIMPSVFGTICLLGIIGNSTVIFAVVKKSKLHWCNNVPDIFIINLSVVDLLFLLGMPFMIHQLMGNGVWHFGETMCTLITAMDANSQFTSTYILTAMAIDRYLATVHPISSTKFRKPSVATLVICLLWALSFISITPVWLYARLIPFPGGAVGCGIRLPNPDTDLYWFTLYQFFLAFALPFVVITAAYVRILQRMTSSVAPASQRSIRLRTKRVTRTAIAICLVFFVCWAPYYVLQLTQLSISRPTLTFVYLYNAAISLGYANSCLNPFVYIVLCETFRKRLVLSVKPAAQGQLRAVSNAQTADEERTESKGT", "test": "MCH receptor 1 antagonistic activity, Ca2+ mobilization assay", "assay_type": "cell-based", "details": "CHO, read-out: Inhibitory rate % (0.1 μM)", "method": "Measurement of MCH Receptor 1 Antagonistic Activity of Test Compound Using Ca^2+ Mobilization Assay Using an expression vector plasmid introduced with human MCHR1 gene for expression in animal cells, human MCHR1 gene was introduced into CHO cells (CHO dhfr^−) by Lipofectamine LTX (Invitrogen). The cells were cultured in selection MEMα medium [445 mL of MEMα medium without nucleic acid and added with 5 mL of Penicillin-Streptomycin (Invitrogen) and 50 mL of dialyzed fetal bovine serum]. Colony 24 clones grown in the selection medium, which were human MCHR1 gene-expressing CHO cell candidates, were selected. […] In the following test, this human MCHR1-expressing CHO cell (clone #4) was used. An integrated dispensing function fluorometer (CellLux, PerkinElmer) was used for Ca^2+ mobilization assay. […] The medium was removed, and the cells were washed with phosphate buffered saline (PBS). […] The plate was set on a plate reader. […] The inhibition rates (%) of test compounds (0.1 μM) as antagonist activity measured using human MCHR1-expressing CHO cells (clone #4) are shown in the following Table 3."}, "[1]": {"target": "T2, human MCH receptor 1 (MCHR1) (Homo sapiens, UniProt Q99705)", "T2 construct": "expressed in transfected cells; host or cells: CHO cell clone 57 (membrane fraction)", "T2 sequence (Q99705 whole entry)": "as above", "test": "human MCH receptor 1 (MCHR1) competitive binding assay with [125I]-MCH(4-19)", "details": "test compound 0.1 μM, human MCHR1-expressing CHO cell membrane fraction, read-out: Binding inhibition rate % (0.1 μM)", "in_short": "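Percent binding inhibition by 0.1 μM test compound, corrected for nonspecific binding defined with unlabeled MCH(1-19), is read by scintillation after filtration onto PEI-treated GF/C filters. The reaction runs 1 hr at room temperature with [125I]-MCH(4-19) and human MCHR1-CHO cell membranes in Tris-HCl pH 7.5 buffer containing EDTA and protease inhibitors.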"}, "[2]": {"details": "test compound 0.1 μM, human MCHR1-expressing CHO cells (clone #4), ligand MCH(4-19) 2 nM"}}, "note": "Where a name gives a salt, the structure may show the parent alone. Read-outs that look alike come from different tables or passages of the source.", "data": [{"smiles": "Cn1c(C2CC2)nc2ccc(-n3ccc(OCc4nc(C5CC5)cs4)cc3=O)cc21", "note": "[Example 277, 1-(2-Cyclopropyl-1-methyl-1H-benzimidazol-6-yl)-4-((4-cyclopropyl-1,3-thiazol-2-yl)methoxy)pyridin-2(1H)-one]", "values": [{"measurement": "inhibition at 0.1 µM", "setting": "human MCHR1; [2]", "value": 77, "unit": "%"}, {"measurement": "inhibition at 0.1 µM", "setting": "[1]", "value": 55, "unit": "%"}]}, {"smiles": "Cc1ncoc1-c1nc2ccc(-n3ccc(OCc4ccc(F)cc4)cc3=O)cc2n1C", "note": "[Example 89, 4-((4-Fluorobenzyl)oxy)-1-(1-methyl-2-(4-methyl-1,3-oxazol-5-yl)-1H-benzimidazol-6-yl)pyridin-2(1H)-one]", "values": [{"measurement": "inhibition at 0.1 µM", "setting": "human MCHR1; [2]", "value": 46, "unit": "%"}, {"measurement": "inhibition at 0.1 µM", "setting": "[1]", "value": 73, "unit": "%"}]}, {"smiles": "Cn1c(C2CC2(F)F)nc2ccc(-n3ccc(OCc4ccc(Cl)cc4)cc3=O)cc21", "note": "(stereo not drawn) [Example 62, 4-((4-Chlorobenzyl)oxy)-1-(2-(2,2-difluorocyclopropyl)-1-methyl-1H-benzimidazol-6-yl)pyridin-2(1H)-one]", "values": [{"measurement": "inhibition at 0.1 µM", "setting": "human MCHR1; [2]", "value": 57, "unit": "%"}, {"measurement": "inhibition at 0.1 µM", "setting": "[1]", "value": 63, "unit": "%"}]}, {"smiles": "Cc1c(C2CC2)nc2ccc(-n3ccc(OCc4cc(Cl)cs4)cc3=O)cn12", "note": "[Example 168, 4-((4-Chlorothiophen-2-yl)methoxy)-1-(2-cyclopropyl-3-methylimidazo[1,2-a]pyridin-6-yl)pyridin-2(1H)-one]", "values": [{"measurement": "inhibition at 0.1 µM", "setting": "human MCHR1; [2]", "value": 103, "unit": "%"}, {"measurement": "inhibition at 0.1 µM", "setting": "[1]", "value": 84, "unit": "%"}]}, {"smiles": "Cn1c(C2CC2)nc2ccc(-n3ccc(OCc4ccc(Br)o4)cc3=O)cc21", "note": "[Example 259, 4-((5-Bromo-2-furyl)methoxy)-1-(2-cyclopropyl-1-methyl-1H-benzimidazol-6-yl)pyridin-2(1H)-one]", "values": [{"measurement": "inhibition at 0.1 µM", "setting": "human MCHR1; [2]", "value": 100, "unit": "%"}, {"measurement": "inhibition at 0.1 µM", "setting": "[1]", "value": 70, "unit": "%"}]}, {"smiles": "Cc1c(C2CC2)nc2ccc(-n3ccc(OCc4csc(Br)c4)cc3=O)cn12", "note": "[Example 177, 4-((5-Bromo-3-thienyl)methoxy)-1-(2-cyclopropyl-3-methylimidazo[1,2-a]pyridin-6-yl)pyridin-2(1H)-one]", "values": [{"measurement": "inhibition at 0.1 µM", "setting": "human MCHR1; [2]", "value": 97, "unit": "%"}, {"measurement": "inhibition at 0.1 µM", "setting": "[1]", "value": 97, "unit": "%"}]}, {"smiles": "Cc1c(C2CC2)nc2ccc(-n3ccc(OCc4cccs4)cc3=O)cn12", "note": "[Example 132, 1-(2-Cyclopropyl-3-methylimidazo[1,2-a]pyridin-6-yl)-4-(2-thienylmethoxy)pyridin-2(1H)-one]", "values": [{"measurement": "inhibition at 0.1 µM", "setting": "human MCHR1; [2]", "value": 96, "unit": "%"}, {"measurement": "inhibition at 0.1 µM", "setting": "[1]", "value": 51, "unit": "%"}]}, {"smiles": "Cn1c(C2CC2)nc2ccc(-n3ccc(OCc4nc(C(F)(F)F)cs4)cc3=O)cc21", "note": "[Example 256, 1-(2-Cyclopropyl-1-methyl-1H-benzimidazol-6-yl)-4-((4-(trifluoromethyl)-1,3-thiazol-2-yl)methoxy)pyridin-2(^1H)-one]", "values": [{"measurement": "inhibition at 0.1 µM", "setting": "human MCHR1; [2]", "value": 97, "unit": "%"}, {"measurement": "inhibition at 0.1 µM", "setting": "[1]", "value": 70, "unit": "%"}]}, {"smiles": "Cn1c(C2CC2)nc2ccc(-n3ccc(OCc4csc(C5CC5)n4)cc3=O)cc21", "note": "[Example 285, 1-(2-Cyclopropyl-1-methyl-1H-benzimidazol-6-yl)-4-((2-cyclopropyl-1,3-thiazol-4-yl)methoxy)pyridin-2(1H)-one]", "values": [{"measurement": "inhibition at 0.1 µM", "setting": "human MCHR1; [2]", "value": 58, "unit": "%"}, {"measurement": "inhibition at 0.1 µM", "setting": "[1]", "value": 36, "unit": "%"}]}, {"smiles": "Cn1c(C2CC2)nc2ccc(-n3ccc(OCc4cccs4)cc3=O)cc21", "note": "[Example 124, 1-(2-Cyclopropyl-1-methyl-1H-benzimidazol-6-yl)-4-(2-thienylmethoxy)pyridin-2(1H)-one]", "values": [{"measurement": "inhibition at 0.1 µM", "setting": "human MCHR1; [2]", "value": 80, "unit": "%"}, {"measurement": "inhibition at 0.1 µM", "setting": "[1]", "value": 58, "unit": "%"}]}, {"smiles": "CCCc1nc2ccc(-n3ccc(OCc4ccc(Cl)cc4)cc3=O)cc2n1C", "note": "[Example 103, 4-((4-Chlorobenzyl)oxy)-1-(1-methyl-2-propyl-1H-benzimidazol-6-yl)pyridin-2(1H)-one]", "values": [{"measurement": "inhibition at 0.1 µM", "setting": "human MCHR1; [2]", "value": 63, "unit": "%"}, {"measurement": "inhibition at 0.1 µM", "setting": "[1]", "value": 78, "unit": "%"}]}, {"smiles": "Cn1c(C2CC2)nc2ccc(-n3ccc(COc4ccc(F)cc4)cc3=O)cc21", "note": "[Example 243, 1-(2-Cyclopropyl-1-methyl-1H-benzimidazol-6-yl)-4-((4-fluorophenoxy)methyl)pyridin-2(1H)-one]", "values": [{"measurement": "inhibition at 0.1 µM", "setting": "human MCHR1; [2]", "value": 72, "unit": "%"}, {"measurement": "inhibition at 0.1 µM", "setting": "[1]", "value": 38, "unit": "%"}]}, {"smiles": "Cc1c(C2CC2)nc2ccc(-n3ccc(NCc4ccc(Cl)cc4)cc3=O)cn12", "note": "[Example 186, 4-((4-Chlorobenzyl)amino)-1-(2-cyclopropyl-3-methylimidazo[1,2-a]pyridin-6-yl)pyridin-2(1H)-one]", "values": [{"measurement": "inhibition at 0.1 µM", "setting": "human MCHR1; [2]", "value": 74, "unit": "%"}, {"measurement": "inhibition at 0.1 µM", "setting": "[1]", "value": 25, "unit": "%"}]}, {"smiles": "Cc1c(C2CC2)nc2ccc(-n3ccc(OCc4csc(C(F)(F)F)c4)cc3=O)cn12", "note": "[Example 183, 1-(2-Cyclopropyl-3-methylimidazo[1,2-a]pyridin-6-yl)-4-((5-(trifluoromethyl)-3-thienyl)methoxy)pyridin-2(1H)-one]", "values": [{"measurement": "inhibition at 0.1 µM", "setting": "human MCHR1; [2]", "value": 75, "unit": "%"}, {"measurement": "inhibition at 0.1 µM", "setting": "[1]", "value": 91, "unit": "%"}]}, {"smiles": "Cn1c(C2CC2)nc2ccc(-n3ccc(OCc4ccsc4)cc3=O)cc21", "note": "[Example 75, 1-(2-Cyclopropyl-1-methyl-1H-benzimidazol-6-yl)-4-(3-thienylmethoxy)pyridin-2(1H)-one]", "values": [{"measurement": "inhibition at 0.1 µM", "setting": "human MCHR1; [2]", "value": 80, "unit": "%"}, {"measurement": "inhibition at 0.1 µM", "setting": "[1]", "value": 84, "unit": "%"}]}, {"smiles": "Cc1c(C2CC2)nc2ccc(-n3ccc(OCc4ccsc4)cc3=O)cn12", "note": "[Example 133, 1-(2-Cyclopropyl-3-methylimidazo[1,2-a]pyridin-6-yl)-4-(3-thienylmethoxy)pyridin-2(1H)-one]", "values": [{"measurement": "inhibition at 0.1 µM", "setting": "human MCHR1; [2]", "value": 98, "unit": "%"}, {"measurement": "inhibition at 0.1 µM", "setting": "[1]", "value": 79, "unit": "%"}]}, {"smiles": "Cn1c(C2CC2)nc2ccc(-n3ccc(OCc4ccc(C(F)F)s4)cc3=O)cc21", "note": "[Example 248, 1-(2-Cyclopropyl-1-methyl-1H-benzimidazol-6-yl)-4-((5-(difluoromethyl)-2-thienyl)methoxy)pyridin-2(1H)-one]", "values": [{"measurement": "inhibition at 0.1 µM", "setting": "human MCHR1; [2]", "value": 97, "unit": "%"}, {"measurement": "inhibition at 0.1 µM", "setting": "[1]", "value": 79, "unit": "%"}]}, {"smiles": "Cn1c(C2CC2)nc2ccc(-n3ccc(OCc4cccc(Cl)c4)cc3=O)cc21", "note": "[Example 127, 4-((3-Chlorobenzyl)oxy)-1-(2-cyclopropyl-1-methyl-1H-benzimidazol-6-yl)pyridin-2(1H)-one]", "values": [{"measurement": "inhibition at 0.1 µM", "setting": "human MCHR1; [2]", "value": 77, "unit": "%"}, {"measurement": "inhibition at 0.1 µM", "setting": "[1]", "value": 80, "unit": "%"}]}, {"smiles": "Cc1nc2ccc(-n3ccc(OCc4ccc(Cl)cc4)cc3=O)cc2n1C", "note": "[Example 107, 4-((4-Chlorobenzyl)oxy)-1-(1,2-dimethyl-1H-benzimidazol-6-yl)pyridin-2(1H)-one]", "values": [{"measurement": "inhibition at 0.1 µM", "setting": "human MCHR1; [2]", "value": 101, "unit": "%"}, {"measurement": "inhibition at 0.1 µM", "setting": "[1]", "value": 60, "unit": "%"}]}, {"smiles": "CCc1nc2ccc(-n3ccc(OCc4csc(F)c4)cc3=O)cc2n1C", "note": "[Example 231, 1-(2-Ethyl-1-methyl-1H-benzimidazol-6-yl)-4-((5-fluoro-3-thienyl)methoxy)pyridin-2(1H)-one]", "values": [{"measurement": "inhibition at 0.1 µM", "setting": "human MCHR1; [2]", "value": 95, "unit": "%"}, {"measurement": "inhibition at 0.1 µM", "setting": "[1]", "value": 71, "unit": "%"}]}, {"smiles": "Cc1c(C2CC2)nc2ccc(-n3ccc(OCc4nc(Br)cs4)cc3=O)cn12", "note": "[Example 194, 4-((4-Bromo-1,3-thiazol-2-yl)methoxy)-1-(2-cyclopropyl-3-methylimidazo[1,2-a]pyridin-6-yl)pyridin-2(1H)-one]", "values": [{"measurement": "inhibition at 0.1 µM", "setting": "human MCHR1; [2]", "value": 100, "unit": "%"}, {"measurement": "inhibition at 0.1 µM", "setting": "[1]", "value": 82, "unit": "%"}]}, {"smiles": "Cc1c(C2CC2)nc2ccc(-n3ccc(OCc4ccccn4)cc3=O)cn12", "note": "[Example 263, 1-(2-Cyclopropyl-3-methylimidazo[1,2-a]pyridin-6-yl)-4-(pyridin-2-ylmethoxy)pyridin-2(1H)-one hydrochloride]", "values": [{"measurement": "inhibition at 0.1 µM", "setting": "human MCHR1", "value": 52, "unit": "%"}, {"measurement": "inhibition at 0.1 µM", "setting": "[1]", "value": 30, "unit": "%"}]}, {"smiles": "CCc1nc2ccc(-n3ccc(OCc4ccc(Cl)cc4)cc3=O)cc2n1C", "note": "[Example 102, 4-((4-Chlorobenzyl)oxy)-1-(2-ethyl-1-methyl-1H-benzimidazol-6-yl)pyridin-2(1H)-one]", "values": [{"measurement": "inhibition at 0.1 µM", "setting": "human MCHR1; [2]", "value": 97, "unit": "%"}, {"measurement": "inhibition at 0.1 µM", "setting": "[1]", "value": 75, "unit": "%"}]}, {"smiles": "Cc1c(C2CC2)nc2ccc(-n3ccc(OCc4ccc(F)cn4)cc3=O)cn12", "note": "[Example 291, 1-(2-Cyclopropyl-3-methylimidazo[1,2-a]pyridin-6-yl)-4-((5-fluoropyridin-2-yl)methoxy)pyridin-2(1H)-one hydrochloride]", "values": [{"measurement": "inhibition at 0.1 µM", "setting": "human MCHR1; [2]", "value": 98, "unit": "%"}, {"measurement": "inhibition at 0.1 µM", "setting": "[1]", "value": 47, "unit": "%"}]}]}
